Data reported in patent US20190365675A1, “COMPOSITIONS FOR THE PREVENTION AND/OR TREATMENT OF ALCOHOL USE DISORDERS” (SERVICIO ANDALUZ DE SALUD, priority 2016, published 2019).

Experiments:
Type in all cases: in vivo, Wistar rats
4-hydroxynonenal (4-HNE) = assay: Lipid peroxidation (HNE adduct ELISA) in frontal cortex after ethanol intoxication; settings: significant only in animals treated with ethanol, OEA pre-treatment
Protocol: The animals were treated with intragastric (i.g.) ethanol 3 times a day using an i.g. cannula (16G needle, Fisher Scientific, Waltham, Mass., USA), following a protocol based on a slightly modified standard 4-day alcohol intoxication pattern (Bernier et al., 2002a, b) (FIG. 1A). The ethanol doses were administered every 8 h for a total time of 4 days. The rats treated with ethanol received an initial loading dose of 5 g/kg of ethanol in a 30% solution (w/v) and then a maximum maintenance dose of 3 g/kg, which were determined based on blood ethanol levels (BEL). This repeated standard alcohol intoxication paradigm kept BEL intoxication relatively constant in a range of sedation/ataxia (190 to 430 mg/dl, Table 3), according to the 6-point alcohol intoxication behavior scale (Majchrowicz, 1975). The mean dose of ethanol/rat/day (days 1-4) was 7.06 g/kg, similar to other studies (Obernier et al., 2002a, b). OEA (5 mg/kg, i.p., except initial dose of 10 mg/kg i.p.; synthesized as described in Giuffrida et al., 2000) was dissolved in the vehicle (5% Tween-80 in saline solution) and injected 10 minutes before each of the administrations of ethanol by an intragastric gavage. […] The levels of HNE protein adducts in cerebral cortex lysates were measured using an OxiSelect™ HNE adduct competitive ELISA 96-well kit (Cell Biolabs®, San Diego, Calif., USA).

control animals = assay: OEA time curve in control animals; settings: time curve 3 h, 6 h, 24 h; some trends at 3 h (TLR4, p65)
Protocol: A time curve (n=18) was also established with OEA (3 h, 6 h, and 24 h) to rule out any effect in the control animals.

NF-kB p65 subunit = assay: NF-κB p65 mRNA and nuclear activity (ELISA-based kit) in frontal cortex after ethanol intoxication
Protocol: The animals were treated with intragastric (i.g.) ethanol 3 times a day using an i.g. cannula (16G needle, Fisher Scientific, Waltham, Mass., USA), following a protocol based on a slightly modified standard 4-day alcohol intoxication pattern (Bernier et al., 2002a, b) (FIG. 1A). The ethanol doses were administered every 8 h for a total time of 4 days. The rats treated with ethanol received an initial loading dose of 5 g/kg of ethanol in a 30% solution (w/v) and then a maximum maintenance dose of 3 g/kg, which were determined based on blood ethanol levels (BEL). This repeated standard alcohol intoxication paradigm kept BEL intoxication relatively constant in a range of sedation/ataxia (190 to 430 mg/dl, Table 3), according to the 6-point alcohol intoxication behavior scale (Majchrowicz, 1975). […] The quantitative changes in mRNA levels were estimated by means of RT-PCR, carried out in the presence of the SYBR green primer using a 20-L reaction in a Rotor-Gene (Corbett Research®, Mortlake, NSW, Australia). […] The nuclear extracts of the frontal cortex were incubated with specific NF-kB p65 subunit response element probes, and the binding of p65 to its probe was detected using an antibody specific for this subunit. A secondary antibody labeled by means of horseradish peroxidase was added, and the binding was detected by means of spectrophotometry at 450 nm. […]

`CCCCCCCC/C=C\CCCCCCCC(=O)NCCO` [OEA, oleoylethanolamide] was tested, and the “Formation of HNE (lipid peroxidation)” value (4-hydroxynonenal (4-HNE)) was “reduced”, the “Effect of OEA on the parameters in control animals” value (control animals) was “did not significantly modify” and the “Ethanol-induced increase in nuclear activity of p65” value (NF-kB p65 subunit; frontal cortex nuclear extracts, OEA pre-treatment) was “counteracted”. The “Ethanol-induced increase in p65 mRNA levels” value (NF-kB p65 subunit; frontal cortex, OEA pre-administration) was “partially prevented”.
